Experimental data taken from patent US10028952B2, “Methods of treating diabetes or obesity using bile acids, bile salts, and mimics thereof” (SATIOGEN PHARMACEUTICALS, INC., priority 2008, dated 2018).
Read-outs that look alike come from different tables or passages of the source.

Assays:
[1] = biological target: T1, TGR5 (Homo sapiens, UniProt Q8TDU6); conditions: TGR5-transfected CHO cells; more potent than the named bile acid; cited from earlier work
T1 construct: expressed in transfected cells; host or cells: CHO cells
T1 sequence (Q8TDU6 1-330): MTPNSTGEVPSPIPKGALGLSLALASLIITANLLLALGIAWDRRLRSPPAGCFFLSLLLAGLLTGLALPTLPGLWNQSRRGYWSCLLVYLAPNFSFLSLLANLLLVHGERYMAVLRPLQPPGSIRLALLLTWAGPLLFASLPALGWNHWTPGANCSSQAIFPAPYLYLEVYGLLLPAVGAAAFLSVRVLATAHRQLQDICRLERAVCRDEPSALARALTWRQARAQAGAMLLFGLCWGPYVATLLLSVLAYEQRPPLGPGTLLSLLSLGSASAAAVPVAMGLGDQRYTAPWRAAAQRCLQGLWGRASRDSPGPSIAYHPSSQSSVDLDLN

[2] = tested on: overnight-fasted Sprague Dawley rats
Method: Using a stainless steel dissolving vessel fitted with a propeller stirrer 1 gram of methyl cellulose is dissolved in 100 mL of purified water and stirred for 15 minutes. 12 syringes connected to gavage tubes are then each filled with 3 mL of the composition.
A 4×4 Latin Square design is used to monitor the effect of the different concentration of taurocholate on the food uptake of overnight-fasted Sprague Dawley rats. Each concentration is tested in triplicate with four rats used per replicate.
The ED50 for inhibition of food intake is obtained by plotting the normalizing the dose response for the anorectic effect of taurocholate to the control data as a log of taurocholate dose vs the percentage of control cumulative intake (FIG. 7).

[3] = tested on: overnight-fasted Sprague Dawley rats; conditions: 500 mM sodium taurocholate, 3 mL rectal gel, 1% methyl cellulose, over 6 hours
Method: Using a stainless steel dissolving vessel fitted with a propeller stirrer 1 gram of methyl cellulose is dissolved in 100 mL of purified water and stirred for 15 minutes. 5 syringes connected to gavage tubes are then each filled with 3 mL of the composition.
The sodium taurocholate rectal gel described above was rectally administered to 6 conscious overnight-fasted subjects (e.g., Sprague Dawley rats) and the control rectal gel without the sodium taurocholate was rectally administered to 5 conscious overnight-fasted subjects (e.g., Sprague Dawley rats). Each rat was then exposed to pre-weighed food and the cumulative consumption of the food was determined over a 6 hour period by weighing the food after 30 minutes, 60 minutes, 120 minutes, 240 minutes and 360 minutes.

[4] = tested on: obese human diabetics; conditions: rectal, 0.66-20.0 mmoles in 20 ml 1% carboxymethyl cellulose gel, after 100 mg sitagliptin
Method: Studies were undertaken after an overnight fast following administration (8-10 hours prior to bile salt) of 100 mg sitagliptin, a DPP-4 inhibitor that protects GLP-1 from inactivation by proteolysis. […] The taurocholic acid was administered into the rectum by syringe in a total volume of 20 ml of 1% carboxymethyl cellulose gel. Each dose was administered on a different day with at least three days between doses.

[5] = 50, 150, 500 mM rectal gels, 3 mL

| SMILES | rank of potency (TGR5 agonist potency) [1] | cumulative food intake, relation to quantity administered [2, 5] | time for which differences in food uptake are maintained [2, 5] | ED50 for inhibition of food intake ([2]; 24 hour intake, rectal gel) | ED50 for inhibition of food intake ([2]; at 1 hour, 3 mL doses, rectal gel) | ED50 for inhibition of food intake ([2]; at 1 hour, rectal gel) | dose dependency for inhibition of intake between 8 and 24 hours ([2]; rectal gel) | cumulative food intake compared to rats instilled with gel alone [3] | circulating GLP-1 levels [4] | circulating PYY levels [4] |
| --- | --- | --- | --- | --- | --- | --- | --- | --- | --- | --- |
| C[C@H](CCC(=O)O)[C@H]1CC[C@H]2[C@@H]3[C@H](O)C[C@@H]4C[C@H](O)CC[C@]4(C)[C@H]3C[C@H](O)[C@]12C [CA, cholic acid] | > hyodeoxycholic acid (HDCA |  |  |  |  |  |  |  |  |  |
| C[C@H](CCC(=O)NCCS(=O)(=O)O)[C@H]1CC[C@H]2[C@@H]3[C@H](O)C[C@@H]4C[C@H](O)CC[C@]4(C)[C@H]3C[C@H](O)[C@]12C [taurocholate, taurocholic acid] |  | dose dependently related | at least 24 hours | 7.2 mmol/rat | 528 mM | 1.6 mmol/rat | not different | reduced | increase | increase |
